According to article PMC10268594 (2023):

Assays:
Assay in all cases: single-molecule MspA-M2 nanopore kinetics
[1] = test system: Dopamine-binding aptamer (DNA, aptamer) CGACGCCAGTTTGAAGGTTCGTTCGCAGGTGTGGAGTGACGTCG; conditions: 1 M KCl; 10 mM Tris pH 7.4, +180 mV, aptamer cis, 25 µM dopamine trans
[2] = test system: Serotonin-binding aptamer (DNA, aptamer) CGACTGGTAGGCAGATAGGGGAAGCTGATTCGATGCGTGGGTCG; conditions: 1 M KCl; +120 mV, aptamer cis, serotonin trans
[3] = test system: Theophylline-binding aptamer (RNA, aptamer) AGUGAUACCAGCAUCGUCUUGAUGCCCUUGGCAGCACU; conditions: 1 M KCl; +180 mV, aptamer cis, 25 µM theophylline trans

Compound `NCCc1ccc(O)c(O)c1` has a Kd [1] of 27 ± 3 µM.
For `NCCc1c[nH]c2ccc(O)cc12`, the Kd [2] was 9.0 ± 1.3 µM.
`Cn1c(=O)c2[nH]cnc2n(C)c1=O` gave a Kd [3] of 72 ± 17 µM.
